Measured values reported in ChEMBL document CHEMBL4627246, “Pyroglutamide-Based P2X7 Receptor Antagonists Targeting Inflammatory Bowel Disease” (J Med Chem, 2020).

The compounds below were run on RXF 393 (assay: Cytotoxicity against human RXF393 cells assessed as effect on cell growth at 10 uM incubated for 48 hrs by sulforhodamine B assay). Conditions: rxf 393, 48 h.
Format: cell-based

Compound	Activity
O=C(NCc1ccc(Cl)cc1Cl)[C@@H]1CCC(=O)N1Cc1ccccc1	Non-Toxic
COc1ccc(N2C(=O)CC[C@H]2C(=O)NCc2ccc(Cl)cc2Cl)cc1	Non-Toxic
COC(=O)[C@@H]1C/C(=C\NCc2ccc(Cl)cc2Cl)C(=O)N1C(=O)OC	Non-Toxic

These compounds were tested on MDA-MB-231 (assay: Cytotoxicity against human MDA-MB-231 cells assessed as effect on cell growth at 10 uM incubated for 48 hrs by sulforhodamine B assay). Conditions: mda-mb-231, 48 h.
Format: cell-based

Compound	Activity
O=C(NCc1ccc(Cl)cc1Cl)[C@@H]1CCC(=O)N1Cc1ccccc1	Non-Toxic
COc1ccc(N2C(=O)CC[C@H]2C(=O)NCc2ccc(Cl)cc2Cl)cc1	Non-Toxic
COC(=O)[C@@H]1C/C(=C\NCc2ccc(Cl)cc2Cl)C(=O)N1C(=O)OC	Non-Toxic

Each compound was assayed on SF-268 (assay: Cytotoxicity against human SF268 cells assessed as effect on cell growth at 10 uM incubated for 48 hrs by sulforhodamine B assay). Conditions: sf-268, 48 h.
Format: cell-based

Compound	Activity
O=C(NCc1ccc(Cl)cc1Cl)[C@@H]1CCC(=O)N1Cc1ccccc1	Non-Toxic
COc1ccc(N2C(=O)CC[C@H]2C(=O)NCc2ccc(Cl)cc2Cl)cc1	Non-Toxic
COC(=O)[C@@H]1C/C(=C\NCc2ccc(Cl)cc2Cl)C(=O)N1C(=O)OC	Non-Toxic

These compounds were tested on LOX IMVI (assay: Cytotoxicity against human LOXIMVI cells assessed as effect on cell growth at 10 uM incubated for 48 hrs by sulforhodamine B assay). Conditions: not given.
Format: cell-based

Compound	Activity
O=C(NCc1ccc(Cl)cc1Cl)[C@@H]1CCC(=O)N1Cc1ccccc1	Non-Toxic
COc1ccc(N2C(=O)CC[C@H]2C(=O)NCc2ccc(Cl)cc2Cl)cc1	Non-Toxic
COC(=O)[C@@H]1C/C(=C\NCc2ccc(Cl)cc2Cl)C(=O)N1C(=O)OC	Non-Toxic

The compounds below were run on K562 (assay: Cytotoxicity against human K562 cells assessed as effect on cell growth at 10 uM incubated for 48 hrs by sulforhodamine B assay). Conditions: k562, 48 h.
Format: cell-based

Compound	Activity
O=C(NCc1ccc(Cl)cc1Cl)[C@@H]1CCC(=O)N1Cc1ccccc1	Non-Toxic
COc1ccc(N2C(=O)CC[C@H]2C(=O)NCc2ccc(Cl)cc2Cl)cc1	Non-Toxic
COC(=O)[C@@H]1C/C(=C\NCc2ccc(Cl)cc2Cl)C(=O)N1C(=O)OC	Non-Toxic

The compounds below were run on NCI-H226 (assay: Cytotoxicity against human NCI-H226 cells assessed as effect on cell growth at 10 uM incubated for 48 hrs by sulforhodamine B assay). Conditions: nci-h226, 48 h.
Format: cell-based

Compound	Activity
O=C(NCc1ccc(Cl)cc1Cl)[C@@H]1CCC(=O)N1Cc1ccccc1	Non-Toxic
COc1ccc(N2C(=O)CC[C@H]2C(=O)NCc2ccc(Cl)cc2Cl)cc1	Non-Toxic
COC(=O)[C@@H]1C/C(=C\NCc2ccc(Cl)cc2Cl)C(=O)N1C(=O)OC	Non-Toxic

What follows are compounds tested on SK-MEL-5 (assay: Cytotoxicity against human SK-MEL-5 cells assessed as effect on cell growth at 10 uM incubated for 48 hrs by sulforhodamine B assay). Conditions: sk-mel-5, 48 h.
Format: cell-based

Compound	Activity
O=C(NCc1ccc(Cl)cc1Cl)[C@@H]1CCC(=O)N1Cc1ccccc1	Non-Toxic
COc1ccc(N2C(=O)CC[C@H]2C(=O)NCc2ccc(Cl)cc2Cl)cc1	Non-Toxic
COC(=O)[C@@H]1C/C(=C\NCc2ccc(Cl)cc2Cl)C(=O)N1C(=O)OC	Non-Toxic

Each compound was assayed on Hs-578T (assay: Cytotoxicity against human Hs 578T cells assessed as effect on cell growth at 10 uM incubated for 48 hrs by sulforhodamine B assay). Conditions: not given.
Format: cell-based

Compound	Activity
O=C(NCc1ccc(Cl)cc1Cl)[C@@H]1CCC(=O)N1Cc1ccccc1	Non-Toxic
COc1ccc(N2C(=O)CC[C@H]2C(=O)NCc2ccc(Cl)cc2Cl)cc1	Non-Toxic
COC(=O)[C@@H]1C/C(=C\NCc2ccc(Cl)cc2Cl)C(=O)N1C(=O)OC	Non-Toxic

Each compound was assayed on CCRF-CEM (assay: Cytotoxicity against human CCRF-CEM cells assessed as effect on cell growth at 10 uM incubated for 48 hrs by sulforhodamine B assay). Conditions: not given.
Format: cell-based

Compound	Activity
O=C(NCc1ccc(Cl)cc1Cl)[C@@H]1CCC(=O)N1Cc1ccccc1	Non-Toxic
COc1ccc(N2C(=O)CC[C@H]2C(=O)NCc2ccc(Cl)cc2Cl)cc1	Non-Toxic
COC(=O)[C@@H]1C/C(=C\NCc2ccc(Cl)cc2Cl)C(=O)N1C(=O)OC	Non-Toxic

What follows are compounds tested on MDA-MB-435 (assay: Cytotoxicity against human MDA-MB-435 cells assessed as effect on cell growth at 10 uM incubated for 48 hrs by sulforhodamine B assay). Conditions: mda-mb-435, 48 h.
Format: cell-based

Compound	Activity
O=C(NCc1ccc(Cl)cc1Cl)[C@@H]1CCC(=O)N1Cc1ccccc1	Non-Toxic
COc1ccc(N2C(=O)CC[C@H]2C(=O)NCc2ccc(Cl)cc2Cl)cc1	Non-Toxic
COC(=O)[C@@H]1C/C(=C\NCc2ccc(Cl)cc2Cl)C(=O)N1C(=O)OC	Non-Toxic

The compounds below were run on CAKI-1 (assay: Growth inhibition of human Caki1 cells assessed as growth percentage at 10 uM incubated for 48 hrs by sulforhodamine B assay). Conditions: caki-1, 48 h.
Format: cell-based

Compound	Activity
O=C(NCc1ccc(Cl)cc1Cl)[C@@H]1CCC(=O)N1Cc1ccccc1	Non-Toxic
COc1ccc(N2C(=O)CC[C@H]2C(=O)NCc2ccc(Cl)cc2Cl)cc1	Non-Toxic
COC(=O)[C@@H]1C/C(=C\NCc2ccc(Cl)cc2Cl)C(=O)N1C(=O)OC	Non-Toxic

What follows are compounds tested on BT-549 (assay: Cytotoxicity against human BT549 cells assessed as effect on cell growth at 10 uM incubated for 48 hrs by sulforhodamine B assay). Conditions: bt-549, 48 h.
Format: cell-based

Compound	Activity
O=C(NCc1ccc(Cl)cc1Cl)[C@@H]1CCC(=O)N1Cc1ccccc1	Non-Toxic
COc1ccc(N2C(=O)CC[C@H]2C(=O)NCc2ccc(Cl)cc2Cl)cc1	Non-Toxic
COC(=O)[C@@H]1C/C(=C\NCc2ccc(Cl)cc2Cl)C(=O)N1C(=O)OC	Non-Toxic

The compounds below were run on SK-MEL-28 (assay: Cytotoxicity against human SK-MEL-28 cells assessed as effect on cell growth at 10 uM incubated for 48 hrs by sulforhodamine B assay). Conditions: sk-mel-28, 48 h.
Format: cell-based

Compound	Activity
O=C(NCc1ccc(Cl)cc1Cl)[C@@H]1CCC(=O)N1Cc1ccccc1	Non-Toxic
COc1ccc(N2C(=O)CC[C@H]2C(=O)NCc2ccc(Cl)cc2Cl)cc1	Non-Toxic
COC(=O)[C@@H]1C/C(=C\NCc2ccc(Cl)cc2Cl)C(=O)N1C(=O)OC	Non-Toxic

These compounds were tested on MCF7 (assay: Cytotoxicity against human MCF7 cells assessed as effect on cell growth at 10 uM incubated for 48 hrs by sulforhodamine B assay). Conditions: mcf7, 48 h.
Format: cell-based

Compound	Activity
O=C(NCc1ccc(Cl)cc1Cl)[C@@H]1CCC(=O)N1Cc1ccccc1	Non-Toxic
COc1ccc(N2C(=O)CC[C@H]2C(=O)NCc2ccc(Cl)cc2Cl)cc1	Non-Toxic
COC(=O)[C@@H]1C/C(=C\NCc2ccc(Cl)cc2Cl)C(=O)N1C(=O)OC	Non-Toxic

These compounds were tested on OVCAR-4 (assay: Cytotoxicity against human OVCAR4 cells assessed as effect on cell growth at 10 uM incubated for 48 hrs by sulforhodamine B assay). Conditions: ovcar-4, 48 h.
Format: cell-based

Compound	Activity
O=C(NCc1ccc(Cl)cc1Cl)[C@@H]1CCC(=O)N1Cc1ccccc1	Non-Toxic
COc1ccc(N2C(=O)CC[C@H]2C(=O)NCc2ccc(Cl)cc2Cl)cc1	Non-Toxic
COC(=O)[C@@H]1C/C(=C\NCc2ccc(Cl)cc2Cl)C(=O)N1C(=O)OC	Non-Toxic

The compounds below were run on UACC-257 (assay: Cytotoxicity against human UACC257 cells assessed as effect on cell growth at 10 uM incubated for 48 hrs by sulforhodamine B assay). Conditions: uacc-257, 48 h.
Format: cell-based

Compound	Activity
O=C(NCc1ccc(Cl)cc1Cl)[C@@H]1CCC(=O)N1Cc1ccccc1	Non-Toxic
COc1ccc(N2C(=O)CC[C@H]2C(=O)NCc2ccc(Cl)cc2Cl)cc1	Non-Toxic
COC(=O)[C@@H]1C/C(=C\NCc2ccc(Cl)cc2Cl)C(=O)N1C(=O)OC	Non-Toxic

What follows are compounds tested on OVCAR-3 (assay: Cytotoxicity against human OVCAR3 cells assessed as effect on cell growth at 10 uM incubated for 48 hrs by sulforhodamine B assay). Conditions: ovcar-3, 48 h.
Format: cell-based

Compound	Activity
O=C(NCc1ccc(Cl)cc1Cl)[C@@H]1CCC(=O)N1Cc1ccccc1	Non-Toxic
COc1ccc(N2C(=O)CC[C@H]2C(=O)NCc2ccc(Cl)cc2Cl)cc1	Non-Toxic
COC(=O)[C@@H]1C/C(=C\NCc2ccc(Cl)cc2Cl)C(=O)N1C(=O)OC	Non-Toxic

These compounds were tested on SK-MEL-2 (assay: Cytotoxicity against human SK-MEL-2 cells assessed as effect on cell growth at 10 uM incubated for 48 hrs by sulforhodamine B assay). Conditions: sk-mel-2, 48 h.
Format: cell-based

Compound	Activity
O=C(NCc1ccc(Cl)cc1Cl)[C@@H]1CCC(=O)N1Cc1ccccc1	Non-Toxic
COc1ccc(N2C(=O)CC[C@H]2C(=O)NCc2ccc(Cl)cc2Cl)cc1	Non-Toxic
COC(=O)[C@@H]1C/C(=C\NCc2ccc(Cl)cc2Cl)C(=O)N1C(=O)OC	Non-Toxic

The compounds below were run on SN12C (assay: Cytotoxicity against human SN12C cells assessed as effect on cell growth at 10 uM incubated for 48 hrs by sulforhodamine B assay). Conditions: not given.
Format: cell-based

Compound	Activity
O=C(NCc1ccc(Cl)cc1Cl)[C@@H]1CCC(=O)N1Cc1ccccc1	Non-Toxic
COc1ccc(N2C(=O)CC[C@H]2C(=O)NCc2ccc(Cl)cc2Cl)cc1	Non-Toxic
COC(=O)[C@@H]1C/C(=C\NCc2ccc(Cl)cc2Cl)C(=O)N1C(=O)OC	Non-Toxic

These compounds were tested on HOP-62 (assay: Cytotoxicity against human HOP62 cells assessed as effect on cell growth at 10 uM incubated for 48 hrs by sulforhodamine B assay). Conditions: hop-62, 48 h.
Format: cell-based

Compound	Activity
O=C(NCc1ccc(Cl)cc1Cl)[C@@H]1CCC(=O)N1Cc1ccccc1	Non-Toxic
COc1ccc(N2C(=O)CC[C@H]2C(=O)NCc2ccc(Cl)cc2Cl)cc1	Non-Toxic
COC(=O)[C@@H]1C/C(=C\NCc2ccc(Cl)cc2Cl)C(=O)N1C(=O)OC	Non-Toxic
